The conditions of experiment [1]: over one year; cited from earlier work.
Experiment [2] is described as follows: Oral gavage of non-formulated peroxide, body weight and food intake (Example 7). The experiment is classed as in vivo, Sprague Dawley lean rats. As to conditions: rats, oral gavage three times daily in acidified water, total dose 600 mg/kg body weight, 3 days. The method, then:
(§1) 6-7 week old Sprague Dawley lean rats were orally gavaged three times daily either with carbamide peroxide dissolved in acidified water as the treatment arm (total dose=600 mg/kg body weight) or with acidified water alone as the control arm (12 […] per arm) for 3 days. Gavage solution was prepared immediately before oral gavaging was performed. Each rat was fed a normal chow diet throughout (Research Diets) and kept under 12 hr-12 hr light-dark cycle in its own metabolic cage. Fresh fecal samples were collected at day 0 (basal measurement, before dosing start) and at the end of day 3 (after the final dose) and immediately stored at −80 C. Later, 16S rRNA sequencing was performed to measure relative abundance of different taxa in the stool samples. Body weight and food intake were measured daily.

Experiment [3] deals with gut microbiota. Description: Oral gavage of non-formulated peroxide, 16S rRNA sequencing of fecal samples (Example 7). The experiment is classed as in vivo, Sprague Dawley lean rats. As to conditions: rats, oral gavage three times daily in acidified water, total dose 600 mg/kg body weight, 3 days. The method, then: as §1

Each structure is given as a SMILES string.

On to `CC(C)(N)Cc1ccccc1` [Phentermine], for which the weight loss in experiment [1] is given as 4-5%. Consider `CCCCCCCCCCC[C@@H](C[C@@H]1OC(=O)[C@H]1CCCCCC)OC(=O)[C@H](CC(C)C)NC=O` [Xenical], for which, in experiment [1], the weight loss was 3-4%.

For `NC(N)=O.OO` [carbamide peroxide], in experiment [2], the “body weight, treatment versus control arm” value is listed as “no significant differences” and the “food intake, treatment versus control arm” value was “no significant differences”. The “change in gut microbiota composition between Day 0 and Day 3, treatment arm and control arm” value in experiment [3] is listed as “No significant change”.

(Values after patent US11179356B2, “Methods and compositions to modulate the gut microbiota and to manage weight” (Xeno Biosciences Inc., priority 2015, dated 2021).)
